From patent US20200079773A1, “CARBOXYLIC ACID DERIVATIVES OF PYRIDOQUINAZOLINES USEFUL AS PROTEIN KINASE INHIBITORS” (ONCOSTELLAE, S.L., priority 2017, published 2020)

Columns and labels:
Assay type in all cases: biochemical
Human MLK3 = biological target: T1, Human MLK3 (Homo sapiens, UniProt Q16584); assay: MLK3 activity inhibition test (Reaction Biology kit, 33P ATP filter assay); settings: MBP 10 μM, ATP 10 μM
T1 construct: purchased Reaction Biology MLK3
Experimental: MLK3 Activity Inhibition Test
Activity test was carried out using the kit from Reaction Biology (CAT #: MLK3). The test uses enzyme Human MLK3 and substrates are MBP (Myelin Basic Protein, HGNC ID:6925) 10 μM and ATP 10 μM. Other reagents are the following: Base Reaction buffer; 20 mM Hepes (pH 7.5), 10 mM MgCl2, 1 mM EGTA, 0.02% Brij35, 0.02 mg/ml BSA, 0.1 mM Na3VO4, 2 mM DTT, 1% DMSO.
The reaction was carried out following the instructions of manufacturer. Briefly, kinase/substrate pairs were prepared in reaction buffer. Compounds were delivered into the reaction, followed 20 minutes later by addition of a mixture of ATP (Sigma, St. Louis Mo.) and ^33P ATP (Perkin Elmer, Waltham Mass.) to a final concentration of 10 μM. Reactions were carried out at room temperature for 120 min, followed by spotting of the reactions onto P81 ion exchange filter paper (Whatman Inc., Piscataway, N.J.). Unbound phosphate was removed by extensive washing of filters in 0.75% phosphoric acid. […] IC50 values and curve fits were obtained using Prism (GraphPad Software).

JAK1 = biological target: T2, JAK1 (Homo sapiens, UniProt P23458); assay: Functional assay of protein kinases (Caliper mobility shift), JAK1; settings: ATP 100 μM, 150 min incubation
T2 construct: purchased Carna Biosciences 08-144
T2 sequence (P23458 850-1154 limits assumed): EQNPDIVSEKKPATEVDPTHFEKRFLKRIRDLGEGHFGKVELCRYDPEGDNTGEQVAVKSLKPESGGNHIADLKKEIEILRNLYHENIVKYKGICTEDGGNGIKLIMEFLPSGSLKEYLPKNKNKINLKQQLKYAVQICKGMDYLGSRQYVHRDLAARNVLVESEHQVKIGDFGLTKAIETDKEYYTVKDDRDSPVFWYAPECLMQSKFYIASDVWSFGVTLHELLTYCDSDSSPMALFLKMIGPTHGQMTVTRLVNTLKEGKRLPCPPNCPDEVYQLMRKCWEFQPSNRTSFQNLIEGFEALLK
Experimental: (§1) Functional Assays of Protein Kinases
(§2) The functional assays of protein kinases were carried out in 384-well plates using a final volume of 30 μl. […] The reaction was reads in a “Caliper EzReader LabChip 3000” (Caliper, Hopkinton, Mass.) reader, based on electrophoretic mobility of the fluorescent substrate and the phosphorylated product.
(§3) The inhibition percentages were calculated by comparison between control reactions, for 100% of inhibition and reactions with only DMSO for 0% of inhibition.

JAK2 = biological target: T3, JAK2 (Homo sapiens, UniProt O60674); assay: Functional assay of protein kinases (Caliper mobility shift), JAK2; settings: ATP 300 μM, 30 min incubation
T3 construct: purchased Carna Biosciences 08-045
T3 sequence (O60674 826-1132 limits assumed): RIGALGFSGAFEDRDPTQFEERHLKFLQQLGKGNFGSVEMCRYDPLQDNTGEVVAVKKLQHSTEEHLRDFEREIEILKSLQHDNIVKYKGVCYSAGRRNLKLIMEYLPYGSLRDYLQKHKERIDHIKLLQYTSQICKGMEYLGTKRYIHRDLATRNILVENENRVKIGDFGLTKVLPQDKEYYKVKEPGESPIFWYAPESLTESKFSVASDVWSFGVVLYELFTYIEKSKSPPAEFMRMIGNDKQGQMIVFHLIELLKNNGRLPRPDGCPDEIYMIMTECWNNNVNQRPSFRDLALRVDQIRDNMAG
Experimental: as §1, §2, §3

JAK3 = biological target: T4, JAK3 (Homo sapiens, UniProt P52333); assay: Functional assay of protein kinases (Caliper mobility shift), JAK3; settings: ATP 8 μM, 30 min incubation
T4 construct: purchased Carna Biosciences 08-046
T4 sequence (P52333 795-1124 limits assumed): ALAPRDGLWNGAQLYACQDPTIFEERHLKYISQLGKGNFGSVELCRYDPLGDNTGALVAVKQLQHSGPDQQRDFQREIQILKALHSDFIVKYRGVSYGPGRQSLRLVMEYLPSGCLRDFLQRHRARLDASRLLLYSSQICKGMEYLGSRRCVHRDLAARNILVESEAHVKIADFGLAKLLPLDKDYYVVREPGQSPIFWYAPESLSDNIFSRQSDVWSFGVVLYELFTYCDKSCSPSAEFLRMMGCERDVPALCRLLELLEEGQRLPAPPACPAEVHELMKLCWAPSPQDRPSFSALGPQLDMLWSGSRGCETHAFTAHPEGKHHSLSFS
Experimental: as §1, §2, §3

TYK2 = biological target: T5, TYK2 (Homo sapiens, UniProt P29597); assay: Functional assay of protein kinases (Caliper mobility shift), TYK2; settings: ATP 20 μM, 45 min incubation
T5 construct: purchased Carna Biosciences 08-147
T5 sequence (P29597 871-1187 limits assumed): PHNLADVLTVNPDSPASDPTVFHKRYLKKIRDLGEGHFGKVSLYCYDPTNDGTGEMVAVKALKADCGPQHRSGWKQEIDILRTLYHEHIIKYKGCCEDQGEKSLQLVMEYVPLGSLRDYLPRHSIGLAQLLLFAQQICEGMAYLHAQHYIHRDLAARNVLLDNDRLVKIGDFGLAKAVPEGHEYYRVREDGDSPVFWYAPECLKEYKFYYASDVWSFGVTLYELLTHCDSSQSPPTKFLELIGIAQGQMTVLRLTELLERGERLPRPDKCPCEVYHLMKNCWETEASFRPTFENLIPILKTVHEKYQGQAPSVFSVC
Experimental: as §1, §2, §3

T1 sequence (Q16584 whole entry): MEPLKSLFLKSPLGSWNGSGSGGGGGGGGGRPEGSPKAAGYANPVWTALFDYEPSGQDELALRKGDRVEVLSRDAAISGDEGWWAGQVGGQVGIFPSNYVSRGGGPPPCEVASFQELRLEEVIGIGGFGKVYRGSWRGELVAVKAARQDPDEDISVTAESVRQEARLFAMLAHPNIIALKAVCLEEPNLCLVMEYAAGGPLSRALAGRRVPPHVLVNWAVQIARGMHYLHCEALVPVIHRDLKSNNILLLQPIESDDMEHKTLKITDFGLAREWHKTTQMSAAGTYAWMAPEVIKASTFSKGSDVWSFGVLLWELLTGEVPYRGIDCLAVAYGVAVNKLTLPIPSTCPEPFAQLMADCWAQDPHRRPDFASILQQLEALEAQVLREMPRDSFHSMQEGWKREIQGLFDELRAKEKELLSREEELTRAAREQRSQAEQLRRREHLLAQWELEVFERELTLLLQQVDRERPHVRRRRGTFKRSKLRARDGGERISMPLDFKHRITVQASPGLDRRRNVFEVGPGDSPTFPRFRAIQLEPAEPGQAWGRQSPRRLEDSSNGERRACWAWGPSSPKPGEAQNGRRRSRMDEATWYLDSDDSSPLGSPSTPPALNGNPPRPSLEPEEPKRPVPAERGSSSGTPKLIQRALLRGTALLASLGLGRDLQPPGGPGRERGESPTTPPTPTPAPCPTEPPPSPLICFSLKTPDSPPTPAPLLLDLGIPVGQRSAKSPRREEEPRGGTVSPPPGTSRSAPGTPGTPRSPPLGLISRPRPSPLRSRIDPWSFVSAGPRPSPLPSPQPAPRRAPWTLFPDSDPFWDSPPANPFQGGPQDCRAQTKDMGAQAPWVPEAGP

SMILES	IC50 (Human MLK3) [nM]	IC50 (JAK1) [nM]	IC50 (JAK2) [nM]	IC50 (JAK3) [nM]	IC50 (TYK2) [nM]
O=C(N[C@H]1CC[C@@H](C(=O)O)CC1)c1cccn2c(=O)c3cc(C4CC4)ccc3nc12 [Example 3, (1S,4S)-4-(2-cyclopropyl-11-oxo-11H-pyrido[2,1-b]quinazoline-6-carboxamido)cyclohexane-1-carboxylic acid]	< 100	≥ 1000	≥ 1000	< 100	< 100
O=C(NC12CCC(C(=O)O)(CC1)CC2)c1cccn2c(=O)c3cc(C4CC4)ccc3nc12 [Example 6, 4-(2-cyclopropyl-11-oxo-11H-pyrido[2,1-b]quinazoline-6-carboxamido)bicyclo[2.2.2]octane-1-carboxyli acid]	< 100	≥ 1000	≥ 1000	100 to 1000	100 to 1000
Cc1cc(C(=O)NC2CCC(C(=O)O)CC2)c2nc3ccccc3c(=O)n2c1 (stereo not drawn) [Example 10, 4-(8-methyl-11-oxo-11H-pyrido[2,1-b]quinazoline-6-carboxamido)cyclohexane-1-carboxylic acid]	≥ 1000	≥ 1000	≥ 1000	100 to 1000	< 100
O=C(N[C@H]1CC[C@@H](C(=O)O)CC1)c1cccn2c(=O)c3ccccc3nc12 [Example 13, (1S,4S)-4-(11-oxo-11H-pyrido[2,1-b]quinazoline-6-carboxamido)cyclohexane-1-carboxylic add]	100 to 1000	≥ 1000	≥ 1000	100 to 1000	100 to 1000
O=C(N[C@H]1CC[C@@H](C(=O)O)CC1)c1cccn2c(=O)c3cc(N4CCOCC4)ccc3nc12 [Example 14, (1S,4S)-4-(2-morpholino-11-oxo-11H-pyrido[2,1-b]quinazoline-6-carboxamido)cyclohexane-1-carboxylic acid]	< 100	≥ 1000	≥ 1000	< 100	< 100
O=C(N[C@H]1CC[C@@H](C(=O)O)CC1)c1cccn2c(=O)c3cc(-c4ccc(F)cc4)ccc3nc12 [Example 16, (1S,4S)-4-(2-(4-fluorophenyl)-11-oxo-11H-pyrido[2,1-b]quinazoline-6-carboxamido)cyclohexane-1-carboxylic acid]	< 100	≥ 1000	≥ 1000	< 100	< 100
O=C(N[C@H]1CC[C@@H](C(=O)O)CC1)c1cccn2c(=O)c3cc(-c4ccncc4)ccc3nc12 [Example 17, (1S,4S)-4-(11-oxo-2-(pyridin-4-yl)-11H-pyrido[2,1-b]quinazoline-6-carboxamido)cyclohexane-1-carboxylic acid]	< 100	≥ 1000	≥ 1000	< 100	< 100
COc1ccc2nc3c(C(=O)NC4CCC(C(=O)O)CC4)cccn3c(=O)c2c1 (stereo not drawn) [Example 20, 4-(2-methoxy-11-oxo-11H-pyrido[2,1-b]quinazoline-6-carboxamido)cyclohexane-1-carboxylic acid]	< 100			< 100	100 to 1000
N#Cc1ccc2nc3c(C(=O)NC4CCC(C(=O)O)CC4)cccn3c(=O)c2c1 (stereo not drawn) [Example 21, 4-(2-cyano-11-oxo-11H-pyrido[2,1-b]quinazoline-6-carboxamido)cyclohexane-1-carboxylic add]	≥ 1000	≥ 1000	≥ 1000	100 to 1000	≥ 1000
O=C(NC1CCC(C(=O)O)CC1)c1cccn2c(=O)c3cc(Cl)ccc3nc12 (stereo not drawn) [Example 23, 4-(2-chloro-11-oxo-11H-pyrido[2,1-b]quinazoline-6-carboxamido)cyclohexane-1-carboxylic add]		≥ 1000	≥ 1000	100 to 1000	100 to 1000
O=C(NC1CCC(C(=O)O)CC1)c1cccn2c(=O)c3cc(Br)ccc3nc12 (stereo not drawn) [Example 24, 4-(2-bromo-11-oxo-11H-pyrido[2,1-b]quinazoline-6-carboxamido)cyclohexane-1-carboxylic acid]		≥ 1000	≥ 1000	100 to 1000	100 to 1000
